Data published in PubChem BioAssay AID1996.
Converted amounts (≈) assume the structure as drawn.

conditions: buffer; pH 7.4; 200.0 µM

Compound | solubility kinetic [µg/mL]
CC(Cc1ccccc1)N1C(=O)c2ccccc2C1=O (centres undefined) | 10.6 (≈ 40 µM)
COc1ccc(C)cc1NC(=S)NC12CN3CN(CN(C3)C1)C2 | > 50
CCc1cccc(NC(=O)CC2SC(N3CCCC3)=NC2=O)c1 (centres undefined) | > 49.7
Cc1ccc(CN2CCN(C3CCOCC3)CC2CCO)cc1 (centres undefined) | > 47.8
CCOC(=O)Cc1cc(=O)[nH]c(/N=C(\N)Nc2ccc(OC)cc2)n1 | 6.2 (≈ 18 µM)
Cc1ccc(CN(Cc2ccco2)C(=S)Nc2ccccc2C)cc1 | 0.4 (≈ 1.14 µM)
CC1CC1C(=O)OCC(=O)NC(=O)NC12CC3CC(CC(C3)C1)C2 (centres undefined) | 22.5 (≈ 67.3 µM)
Cc1ccc(OCC(=O)NC(C)c2ccccc2)cc1 (centres undefined) | > 40.4
COc1cccc(CNC(=S)NC2CC2)c1 | 35.2 (≈ 149 µM)
Cc1[nH]c2ccc(C(=O)NCCCN3CCOCC3)cc2c1C | > 47.3
CC(C)NS(=O)(=O)c1ccc(OCC(=O)NC(C)c2ccccc2)cc1 (centres undefined) | 53.1 (≈ 141 µM)
CCCC#CCN1CCN(C23CC4CC(CC(C4)C2)C3)CC1 | 42.6 (≈ 142 µM)
CCOc1ccccc1Nc1nc(-c2cccnc2)cs1 | 10.6 (≈ 35.6 µM)
O=[N+]([O-])c1ccc(NC2CCCC2)c2ccncc12 | 3 (≈ 11.7 µM)
CCCCn1c(N)c(N(C)C(=O)C2CCCC2)c(=O)[nH]c1=O | > 46.3
Cc1ccccc1C(=O)O/N=C(\N)Cc1cccs1 | > 41.2
CC1C(=O)Nc2ccccc2N1C(=O)c1ccc(F)cc1F (centres undefined) | > 45.3
Cc1ccc(OCc2nc(-c3ccccc3)no2)cc1 | 0.4 (≈ 1.5 µM)
CCOc1nc(-c2ccccc2Cl)nc2ccccc12 | 1.4 (≈ 4.92 µM)
CC(Oc1cccc(Cl)c1)C(=O)N1CCCN(C)CC1 (centres undefined) | > 44.5

Compound | solubility kinetic [µg/mL]
C=CCNC(=S)N1CCC(C(=O)c2ccc(Cl)cc2)CC1 | 43.5 (≈ 135 µM)
Cc1ccc(N2C(=O)CC(Sc3nccc(C)n3)C2=O)cc1 (centres undefined) | > 47
Cc1cccc(C)c1NC(=O)C1CC2CCC1C2 (centres undefined) | 12.6 (≈ 51.8 µM)
CCCn1c(SCC(=O)Nc2ccc(F)c(Cl)c2)nc(O)cc1=O | > 55.8
CC(C(=O)Nc1ccc(C#N)cc1)N(C)CC(=O)N(C)c1c(N)n(Cc2ccccc2)c(=O)[nH]c1=O (centres undefined) | > 73.4
Nc1cc[n+](CC(=O)c2ccccc2)cc1.[Br-] | > 44
CCn1ncc(-c2ccnc3cc(C(=O)O)nn23)c1C | > 40.7
Br.N#Cc1ccc(CSC2=NCCN2)cc1 | > 44.7
CCn1c(NCCCO)nc2c(c1=O)C(C)(CC)Cc1ccccc1-2 (centres undefined) | 47 (≈ 138 µM)
O=C(c1ccc(-c2ccc([N+](=O)[O-])cc2)o1)N1CCCCCCC1 | 9.1 (≈ 27.7 µM)
O=C(CN1C(=O)NC2(CCCCCC2)C1=O)Nc1ccc(Cl)c([N+](=O)[O-])c1 | 5.8 (≈ 14.7 µM)
CCN1C(=O)Cc2cc(S(=O)(=O)NCCc3ccccc3)ccc21 | 32.9 (≈ 95.5 µM)
Cc1cccc(NC(=O)c2ccc(Cl)nc2)n1 | > 37.2
CCOC(=O)c1sc(NC(=O)C2CC(=O)N(c3ccc(C)cc3)C2)nc1C (centres undefined) | 13 (≈ 33.6 µM)
O=[N+]([O-])c1ccc2c(c1)[nH]c(=S)n2-c1ccccc1 | 2 (≈ 7.37 µM)
Cc1ccc(OCC(=O)NCCNC(=O)c2cnccn2)cc1C | 46.3 (≈ 141 µM)
Cc1cc(=O)[nH]c2c(C)cc(S(=O)(=O)N3CCOCC3)cc12 | 17.3 (≈ 53.7 µM)
O=C(COC(=O)c1ccc(O)cc1)Nc1ccccc1[N+](=O)[O-] | 4.3 (≈ 13.6 µM)
O=C(Cc1ccccc1)N1CCN(c2ccc([N+](=O)[O-])cc2)CC1 | 3.7 (≈ 11.4 µM)
CCn1c(=O)c(C(=O)NCc2ccc(F)cc2)c(O)c2ccccc21 | < 0.4

Compound | solubility kinetic [µg/mL]
N#Cc1c(Nc2ccc(Cl)cc2)s[nH]c1=O | > 37.8
CCN(CC)Cc1oc(-c2ccccc2)cc1C(=O)O | 32.2 (≈ 118 µM)
COc1ccc(NC(=O)c2ccc([N+](=O)[O-])o2)cc1 | 23.4 (≈ 89.2 µM)
CCOC1OC(=O)C(Cl)=C1Nc1ccc(C)cc1 (centres undefined) | > 40.2
CCn1c(SCC(=O)NC2CCCCC2)nnc1-c1ccccc1F | > 54.4
Cc1ccc2nc(SCC(=O)Nc3ncccn3)[nH]c2c1 | > 44.9
CC1(C)CC2CC(C)(CN2C(=S)Nc2ccccc2)C1 (centres undefined) | 41.6 (≈ 144 µM)
CCCNC(=O)C/C(C)=N/NC(=O)C(=O)Nc1ccccn1 | > 45.8
OCC1(Cc2ccccc2F)CCCN(CCc2ccccc2)C1 (centres undefined) | 40.7 (≈ 124 µM)
Cc1ccccc1NC(=O)Cn1c(=O)sc2ccccc21 | 1.9 (≈ 6.37 µM)
Cc1ccc(OC(C)C(=O)N2CC(=O)Nc3ccccc32)c(C)c1 (centres undefined) | 3 (≈ 9.25 µM)
COC(=O)c1cccc(NC(=O)c2cc3ccccc3o2)c1 | 13.5 (≈ 45.7 µM)
Cl.OCCNCCNCc1ccc(-c2ccccc2)cc1 | > 51.5
Cc1cc(C)cc(NC(=O)CN2CCN(C(=O)C3CCCO3)CC2)c1 (centres undefined) | > 51.8
Cc1ccc(OCC(O)CNC2CCCC2)c(C)c1.Cl (centres undefined) | 41.3
O=C(CNC(=O)c1ccc(Br)o1)NCC1CCCO1 (centres undefined) | > 49.7
CC1CC(Nc2ccccc2)c2ccccc2N1C(=O)c1ccco1 (centres undefined) | 13.2 (≈ 39.7 µM)
Cc1nn(-c2ccccc2)c(N)c1N=O | > 30.3
COc1ccc(NC2(c3ccccc3)OC(=O)c3ccccc32)cc1 (centres undefined) | 1.5 (≈ 4.53 µM)
